Measured values from publication PMC12418948, “Intranasal Administration of KCNN2 Blocking Peptide Improves Deficits in Cognitive Flexibility in Mouse Model of Fetal Alcohol Spectrum Disorders” (International Journal of Neuropsychopharmacology, 2025).
“Also recorded” adds a separate entry of the source. Positions of bridges follow the written chain, without caps; N, C: chain ends. Non-standard residues stand in square brackets, D forms with d. Residues, ends and D or L forms follow the SMILES beside them. Dab = NCC[C@H](N)C(=O)O

Assays:
KCNN2 = experiment: Intranasal delivery to PFC, immunohistochemistry for biotin and KCNN2; assay type: in vivo, mouse (CD-1); details: PFC in addition to motor cortex
Protocol: Mice were deeply anesthetized with isoflurane (Henry Schein, OH) and perfused through the ascending aorta with ice cold 4% paraformaldehyde (PFA) following a standard laboratory protocol. Brains were collected and post-fixed in 4% PFA at 4°C overnight, followed by incubation in 10% and 30% sucrose in PBS at 4°C for 24 hours. Coronal sections at 60 μm thickness were made using a cryostat (CM3050S; Leica, Germany). Free floating sections were incubated with hydrogen peroxide in methanol (1:4) solution at −20°C for 20 minutes to inactivate endogenous peroxidase activity. […]
Lei-Dab7 or biotinylated Lei-Dab7 (Smartox Biotechnology, France) was dissolved in PBS and administered to mice intranasally at 3.0 μg/kg/day. […] Physiological monitoring was recorded at 30 minutes and 24 hours post administration by using PhysioSuite (Kent Scientific, CT).
KCNN2, NeuN, GFAP, IBA1, and biotin-positive cells were quantified. […] Allen Brain Atlas was used to define different brain regions visualized by DAPI staining, and single-plane images from defined regions were used for the quantification. The researcher conducting the quantification was blinded to treatment groups throughout the analysis to minimize bias. The size of the region of interest was determined for each analysis to include a sufficient number of labeled cells with clear and detailed staining. […]

[1] = Physiological monitoring (PhysioSuite) after intranasal administration; assay type: in vivo, mouse (CD-1)
Protocol: Lei-Dab7 or biotinylated Lei-Dab7 (Smartox Biotechnology, France) was dissolved in PBS and administered to mice intranasally at 3.0 μg/kg/day. Vehicle (PBS) only was administered as the control. Briefly, the mouse was held softly on the neck to avoid any movement during drug administration. A 20-μL pipette was used to deliver 3 to 5 μL drug at a time. The tip was placed close enough to the mouse’s nostril at a 45-degree angle, and the drug was slowly ejected into the nostril. The mouse was let to inhale for 3 to 5 seconds and then left in a cage for 5 minutes to fully inhale the drug. This process was repeated until the required amount of drug was administered in a few minutes. The alternate nostril was used to deliver the drug each time to increase the efficiency of administration. Successful delivery by this method was confirmed by detecting biotinylated Lei-Dab7 in the brain, which was collected and immersion-fixed with 4% PFA at 15 minutes after intranasal administration using ABC (Thermo Fisher Scientific, NY) and TSA (PerkinElmer, MA) kits. For the analysis on the effect of treatment, Lei-Dab7 was administered daily throughout the reversal learning test phase of the water T-maze test. Physiological monitoring was recorded at 30 minutes and 24 hours post administration by using PhysioSuite (Kent Scientific, CT).
Supplementary Figure 4. […] Pulse oximetry, heart rate, and body temperature were recorded at 30 minutes and 24 hours post administration of vehicle control (30 minutes only) or Lei-Dab7 (30 minutes, 24 hours). Siblings from the same mother were used as the control for the Lei-Dab7 treatment. […] Data are presented in box plots. The line within the box indicates the median, and the upper and lower edges of the box represent the 25th and 75th percentiles, respectively. The upper and lower whisker boundaries indicate the 10th and 90th percentiles, respectively, and dots indicate outliers.

[2] = P40, 30 minutes and 24 hours post administration, one-way ANOVA, n = 6 animals from 3 litters per group

Structure (SMILES): CC[C@H](C)[C@@H]1NC(=O)[C@@H]2CSSC[C@H](NC(=O)[C@H](Cc3ccccc3)NC(=O)[C@H](C)N)C(=O)N[C@@H](CC(N)=O)C(=O)N[C@@H](CC(C)C)C(=O)N[C@@H](CCCNC(=N)N)C(=O)N[C@@H](CCN)C(=O)N[C@H]3CSSC[C@H](NC(=O)[C@H](CCCCN)NC(=O)[C@H](CC(=O)O)NC(=O)CNC1=O)C(=O)N[C@@H](CCC(=O)O)C(=O)N[C@H](C(=O)N[C@H](C(=O)N[C@@H](CCCCN)C(=O)N[C@@H](Cc1c[nH]cn1)C(N)=O)C(C)C)CSSC[C@H](NC(=O)[C@H](CO)NC(=O)[C@H](CC(C)C)NC(=O)[C@H](CCC(N)=O)NC3=O)C(=O)N[C@@H](CCCNC(=N)N)C(=O)N[C@@H](CO)C(=O)N[C@@H](CC(C)C)C(=O)NCC(=O)N[C@@H](CC(C)C)C(=O)N[C@@H](CC(C)C)C(=O)NCC(=O)N[C@@H](CCCCN)C(=O)N2 [Lei-Dab7, Leiurotoxin-1 Dab7] (H-AFCNLR[Dab]CQLSCRSLGLLGKCIGDKCECVKH-NH2; disulfide 3-21, 8-26, 12-28)
- delivery to target brain regions (KCNN2): efficiently reaches the target in the brain; also recorded: effectively reaches its target regions, including the PFC (Figs. 3, 4) in addition to the motor cortex
- toxicity, 3 primary physiological measures ([1]; 3.0 μg/kg intranasal, pulse oximetry, heart rate, body temperature, 30 minutes or 24 hours post administration): without apparent acute physiological adverse effects; also recorded: No severe toxicity
- body temperature vs vehicle [1, 2]: no statistically significant differences
- heart rate vs vehicle [1, 2]: no statistically significant differences
- pulse oximetry vs vehicle [1, 2]: no statistically significant differences
- adverse effects in control animals ([1]; intranasal, control animals (Figs. 5, S4)): no apparent adverse effects in control animals
